Molecular target: T1, purified Flag-PTP1B (Homo sapiens, UniProt P18031)
T1 construct: Flag-PTP1B (residues 1-320 as a flag fusion); made in house
T1 sequence (P18031 1-320): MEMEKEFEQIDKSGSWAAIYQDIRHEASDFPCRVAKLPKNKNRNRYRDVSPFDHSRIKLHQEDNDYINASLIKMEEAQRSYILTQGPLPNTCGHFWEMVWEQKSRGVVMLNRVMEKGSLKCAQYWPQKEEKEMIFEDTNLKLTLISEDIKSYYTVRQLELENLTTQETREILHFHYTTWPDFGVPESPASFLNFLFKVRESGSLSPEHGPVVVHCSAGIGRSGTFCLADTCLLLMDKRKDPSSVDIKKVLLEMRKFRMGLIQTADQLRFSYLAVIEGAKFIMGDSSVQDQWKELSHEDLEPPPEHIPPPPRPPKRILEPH
Assay: Photolabeling of purified enzyme using radioactive photoprobes
Type: binding
Protocol: All photolabeling experiments with purified enzymes or SF9 cell lysate overexpressing PTP1B were conducted in 96-well polystyrene plates in 50 μl BisTris buffer (50 mM BisTris pH 6.3, 2 mM EDTA, 1 mM DMH) containing enzyme (in BisTris buffer with 20% glycerol, 0.01% Triton X-100) or lysate and Example 9 (in water) or Example 1 (in water) at various concentrations and shaken for 1 min at room temperature. For competition studies, BzN-EJJ-AMIDE at various concentrations was added prior to the addition of the probes. The samples were then placed on ice for 5 min and irradiated with the 40 watt lamp at the standard 10 cm distance for 15 minutes. […] Autoradiography of the dried, coommassie-stained gel was done using Phosphorimaging (Molecular Devices) or by x-ray film (BioMax MS with intensifier screen, Kodak) and quantified by densitometry.
To study the labeling of PTP1B under physiological concentrations that exist in cells and tissues, ^125I -radiolabeled versions of Examples 9 and 1 were synthesized. […] The labeled enzyme was detected by phosphorimage (Molecular Devices) or x-ray film (BioMax MS with intensifier screen) from a SDS-PAGE gel after electrophoresis. From a titration of the purified PTP1B and probe, a detection limit for the two probes of Examples 9 and 1 were determined to be about 5 and 0.2 nM respectively, as detected by phosphorimaging. […]

efficiency of labeling (7 nM probe, purified Flag-PTP1B, vs probe alone after gel electrophoresis): 9%
detection limit of labeled PTP1B (125I-radiolabeled probe, purified PTP1B, phosphorimaging): about 5 nM
Compound: NC(=O)[C@H](Cc1ccc(C(F)(F)P(=O)(O)O)cc1)NC(=O)[C@H](Cc1ccc(C(F)(F)P(=O)(O)O)cc1)NC(=O)c1cc(I)cc(C2(C(F)(F)F)N=N2)c1 [Example 9, 4-(Difluoro(phosphono)methyl)-N-(3-iodo-5-(3-(trifluoromethyl)-3H-diaziren-3-yl)benzoyl)-L-phenylalanyl-4-(difluoro(phosphono)methyl)-L-phenylalaninamide]
